The source of these data is ChEMBL document CHEMBL3390836, “Mannich- and LedererManasse-based analogues of the natural product S-(+)-curcuphenol as cancer proliferation and migration inhibitors” (Medchemcomm, 2012).

Experiment [1] concerns RPMI-8226. The experiment in a line: Cytotoxicity against human RPMI8226 cells assessed as cell growth at 10^-4 M after 48 hrs by SRB assay relative to control. The note with it: RPMI-8226, 48 h, read-out: Activity. It is filed as functional. In general terms: The SRB assay estimates cell density from bound dye.
Experiment [2] deals with NCI-H522. In words: Cytotoxicity against human NCI-H522 cells assessed as cell growth at 10^-6 M after 48 hrs by SRB assay relative to control. It is filed as functional. The conditions noted are these: NCI-H522, 48 h, read-out: Activity.
Experiment [3] relates to RPMI-8226. In words: Cytotoxicity against human RPMI8226 cells assessed as cell growth at 10^-6 M after 48 hrs by SRB assay relative to control. The conditions noted are these: RPMI-8226, 48 h, read-out: Activity. The class given is functional.
Experiment [4] has as its system RPMI-8226. The experiment in a line: Cytotoxicity against human RPMI8226 cells assessed as cell growth at 10^-8 M after 48 hrs by SRB assay relative to control. The class given is functional. The note with it: RPMI-8226, 48 h, read-out: Activity.
The test system of experiment [5] is RPMI-8226. The experiment in a line: Cytotoxicity against human RPMI8226 cells assessed as cell growth at 10^-7 M after 48 hrs by SRB assay relative to control. The class given is functional. The note with it: RPMI-8226, 48 h, read-out: Activity.
For experiment [6], the system named is M14. In words: Cytotoxicity against human M14 cells after 48 hrs by SRB assay. It is filed as functional. The note with it: M14, 48 h; for CC50: read-out: LC50 (the source's name).
Experiment [7] can be described thus: Cytotoxicity against human Hs 578T cells assessed as cell growth at 10^-7 M after 48 hrs by SRB assay relative to control. The class given is functional. The note with it: read-out: Activity.
The test system of experiment [8] is DU-145. The experiment in a line: Cytotoxicity against human DU145 cells assessed as cell growth at 10^-6 M after 48 hrs by SRB assay relative to control. The class given is functional. The conditions noted are these: DU-145, 48 h, read-out: Activity.
Experiment [9] concerns BT-549. In words: Cytotoxicity against human BT549 cells assessed as cell growth at 10^-6 M after 48 hrs by SRB assay relative to control. It is filed as functional. The conditions noted are these: BT-549, 48 h, read-out: Activity.
Experiment [10] relates to SR. In words: Cytotoxicity against human SR cells assessed as cell growth at 10^-8 M after 48 hrs by SRB assay relative to control. The class given is functional. The conditions noted are these: read-out: Activity.
Experiment [11] has as its system BT-549. In words: Cytotoxicity against human BT549 cells assessed as cell growth at 10^-4 M after 48 hrs by SRB assay relative to control. It is filed as functional. The conditions noted are these: BT-549, 48 h, read-out: Activity.
Experiment [12] has as its system DU-145. In words: Cytotoxicity against human DU145 cells assessed as cell growth at 10^-8 M after 48 hrs by SRB assay relative to control. The conditions noted are these: DU-145, 48 h, read-out: Activity. The class given is functional.
The subject of experiment [13] is K562. In words: Cytotoxicity against human K562 cells assessed as cell growth at 10^-4 M after 48 hrs by SRB assay relative to control. It is filed as functional. The conditions noted are these: K562, 48 h, read-out: Activity.
Experiment [14] deals with M14. The experiment in a line: Cytotoxicity against human M14 cells assessed as cell growth at 10^-8 M after 48 hrs by SRB assay relative to control. The class given is functional. The conditions noted are these: M14, 48 h, read-out: Activity.
Experiment [15] has as its system SR. The experiment in a line: Cytotoxicity against human SR cells assessed as cell growth at 10^-6 M after 48 hrs by SRB assay relative to control. It is filed as functional. The conditions noted are these: read-out: Activity.
Experiment [16] deals with MOLT-4. In words: Cytotoxicity against human MOLT4 cells assessed as cell growth at 10^-4 M after 48 hrs by SRB assay relative to control. It is filed as functional. The note with it: MOLT-4, 48 h, read-out: Activity.
The subject of experiment [17] is NCI-H522. In words: Cytotoxicity against human NCI-H522 cells assessed as cell growth at 10^-8 M after 48 hrs by SRB assay relative to control. The class given is functional. The note with it: NCI-H522, 48 h, read-out: Activity.
In experiment [18] the test system is DU-145. In words: Cytotoxicity against human DU145 cells assessed as cell growth at 10^-4 M after 48 hrs by SRB assay relative to control. It is filed as functional. The note with it: DU-145, 48 h, read-out: Activity.
For experiment [19], the system named is NCI-H522. The experiment in a line: Cytotoxicity against human NCI-H522 cells assessed as cell growth at 10^-4 M after 48 hrs by SRB assay relative to control. The class given is functional. The conditions noted are these: NCI-H522, 48 h, read-out: Activity.
Experiment [20] has as its system SR. The experiment in a line: Cytotoxicity against human SR cells after 48 hrs by SRB assay. It is filed as functional. The conditions noted are these: for CC50: read-out: LC50 (the source's name).
The nature of experiment [21]: Cytotoxicity against human PC3 cells assessed as cell growth at 10^-7 M after 48 hrs by SRB assay relative to control. It is filed as functional. The note with it: PC-3, 48 h, read-out: Activity.
For experiment [22], the system named is M14. In words: Cytotoxicity against human M14 cells assessed as cell growth at 10^-4 M after 48 hrs by SRB assay relative to control. The class given is functional. The conditions noted are these: M14, 48 h, read-out: Activity.
Experiment [23] has as its system BT-549. The experiment in a line: Cytotoxicity against human BT549 cells assessed as cell growth at 10^-8 M after 48 hrs by SRB assay relative to control. The class given is functional. The conditions noted are these: BT-549, 48 h, read-out: Activity.
For experiment [24], the target named is Proto-oncogene tyrosine-protein kinase Src (Homo sapiens, UniProt P12931). In words: Inhibition of Src (unknown origin).
Experiment [25] can be described thus: Cytotoxicity against human UACC257 cells assessed as cell growth at 10^-4 M after 48 hrs by SRB assay relative to control. It is filed as functional. The conditions noted are these: UACC-257, 48 h, read-out: Activity.
A short description of experiment [26]: Cytotoxicity against human UACC257 cells assessed as cell growth at 10^-8 M after 48 hrs by SRB assay relative to control. The class given is functional. The note with it: UACC-257, 48 h, read-out: Activity.
A short description of experiment [27]: Cytotoxicity against human UACC257 cells assessed as cell growth at 10^-7 M after 48 hrs by SRB assay relative to control. The note with it: UACC-257, 48 h, read-out: Activity. The class given is functional.
For experiment [28], the system named is CCRF-CEM. In words: Cytotoxicity against human CCRF-CEM cells assessed as cell growth at 10^-4 M after 48 hrs by SRB assay relative to control. It is filed as functional. The conditions noted are these: read-out: Activity.
The subject of experiment [29] is CCRF-CEM. In words: Cytotoxicity against human CCRF-CEM cells assessed as cell growth at 10^-6 M after 48 hrs by SRB assay relative to control. The note with it: read-out: Activity. It is filed as functional.
Experiment [30] is described as follows: Cytotoxicity against human UACC257 cells after 48 hrs by SRB assay. It is filed as functional. The note with it: UACC-257, 48 h.
Experiment [31] relates to CCRF-CEM. The experiment in a line: Cytotoxicity against human CCRF-CEM cells assessed as cell growth at 10^-8 M after 48 hrs by SRB assay relative to control. The class given is functional. The conditions noted are these: read-out: Activity.
Experiment [32] deals with CCRF-CEM. The experiment in a line: Cytotoxicity against human CCRF-CEM cells assessed as cell growth at 10^-7 M after 48 hrs by SRB assay relative to control. It is filed as functional. The note with it: read-out: Activity.

Sequence of Proto-oncogene tyrosine-protein kinase Src (P12931 2-536 limits assumed): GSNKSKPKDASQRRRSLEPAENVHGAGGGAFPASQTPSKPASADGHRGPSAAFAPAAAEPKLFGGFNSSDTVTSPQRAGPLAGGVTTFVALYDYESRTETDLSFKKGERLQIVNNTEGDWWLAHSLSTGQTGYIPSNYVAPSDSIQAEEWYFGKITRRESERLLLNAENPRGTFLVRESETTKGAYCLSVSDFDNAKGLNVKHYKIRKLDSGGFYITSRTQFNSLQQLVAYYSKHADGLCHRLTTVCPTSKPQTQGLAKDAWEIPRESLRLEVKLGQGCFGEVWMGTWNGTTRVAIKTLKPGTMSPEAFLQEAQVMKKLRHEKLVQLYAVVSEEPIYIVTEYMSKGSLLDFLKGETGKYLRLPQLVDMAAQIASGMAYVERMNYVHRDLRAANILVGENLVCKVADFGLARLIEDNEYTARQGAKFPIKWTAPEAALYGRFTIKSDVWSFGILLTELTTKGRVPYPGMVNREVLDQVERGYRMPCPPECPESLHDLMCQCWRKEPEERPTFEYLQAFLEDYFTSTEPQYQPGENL

As to `CC(C)=CCC[C@H](C)c1ccc(C)c2c1OCN(CC1CCNCC1)C2`, the growth at 100 µM is -38% in experiment [1]; -49% in experiment [11]; -50% in [13]; -39% in experiment [16]; -94% in [18]; -84% in experiment [19]. The growth at 100 µM in experiment [22] is -80%. In addition, the growth at 1 µM in [2] worked out at 97%; in experiment [3] it was 110%; in [8] it was 102%; in [9], 104%; in experiment [15] it was 91%. For the same compound, the growth at 0.01 µM in experiment [4] was found to be 99%; in [10], 95%; in experiment [12] it was 104%; in experiment [14] it was 96%; in [17] it was 87%; in experiment [23] it was 94%. Besides, the growth at 0.1 µM in experiment [5] is 102%; in experiment [7], 102%; in experiment [21], 100%. The GI50 (as a rule, the concentration giving 50% growth inhibition) came to 10.2 µM in experiment [6] and 2.79 µM in experiment [20]. The TGI – broadly, the concentration at which net growth stops – came out at 24.5 µM in experiment [6] and 9.83 µM in [20]. The values for the CC50 in experiment [6] and in experiment [20] were 58.9 µM and more than 100 µM, respectively.

For `CC(C)=CCC[C@H](C)c1ccc(C)cc1O`, half-maximal inhibition in [24] (IC50) was put at 35.8 µM.

On to `CC(C)=CCC[C@H](C)c1ccc(C)c(CNCC2CCNCC2)c1O`, for which the growth at 1 µM in experiment [2] was 104%; in experiment [8], 100%; in [9], 81%; in experiment [15], 87%. Further, the growth at 0.1 µM worked out at 91% in [7], 95% in [27] and 99% in experiment [21]. The growth at 100 µM in [25] was -8.3%; in experiment [11] it was 22%; in experiment [13] it was -58%; in experiment [16], -22%; in experiment [18], 41%; in experiment [19] it was 9%. Also, the growth at 0.01 µM in experiment [26] amounted to 93%; in experiment [10], 83%; in experiment [12] it was 100%; in [17] it was 98%; in experiment [23], 98%. In experiment [20], the GI50 stood at 3.71 µM. The same compound came in with a TGI in experiment [20] of 9.67 µM. Besides, the CC50 in experiment [20] was more than 25 µM.

`COc1ccc(CCN2COc3c([C@@H](C)CCC=C(C)C)ccc(C)c3C2)cc1OC`: the growth at 100 µM is -28% in experiment [1], -84% in [25], -29% in [28] and -100% in experiment [22]. Moreover, the growth at 1 µM worked out at 78% in [3] and 93% in experiment [29]. For the same compound, the growth at 0.01 µM in experiment [4] came to 93%; in [26], 80%; in experiment [14], 95%; in [31], 96%. Moreover, the growth at 0.1 µM in [5] is 93%; in [27] it was 91%; in experiment [32], 98%. Moreover, the GI50 is 1.69 µM in experiment [6] and 0.0283 µM in experiment [30]. The TGI in experiment [6] stood at 3.18 µM; in experiment [30], 10.9 µM. For the same compound, the CC50 in [6] turned out to be 5.97 µM; in experiment [30] (read-out: LC50 (the source's name)), 40.8 µM.
